According to article PMC11899342, “Novel Triazeneindole Antibiotics: Synthesis and Hit-to-Lead Optimization” (International Journal of Molecular Sciences, 2025):

Tested on: MRSA clinical isolates
Experiment: Antibiotic susceptibility profile of MRSA clinical isolates (EUCAST breakpoints)
Assay type: cell-based, Staphylococcus aureus
From the text: Clinical MRSA isolates with multidrug resistance were obtained from the collection of the Research Institute of Antimicrobial Chemotherapy, Smolensk State Medical Academy.

CO/N=C(\C(=O)N[C@@H]1C(=O)N2C(C(=O)O)=C(COC(C)=O)CS[C@H]12)c1csc(N)n1 [CEF, cefotaxime]
Drug sensibility profile (MRSA strain 1): S
Drug sensibility profile (MRSA strain 2): S
Drug sensibility profile (MRSA strain 3): S
Drug sensibility profile (MRSA strain 4): S
Drug sensibility profile (MRSA strain 5): S
Drug sensibility profile (MRSA strain 6): R
Drug sensibility profile (MRSA strain 7): S
Drug sensibility profile (MRSA strain 8): R
Drug sensibility profile (MRSA strain 9): S
Drug sensibility profile (MRSA strain 10): S
Drug sensibility profile (MRSA strain 12): S
Drug sensibility profile (MRSA strain 13): R
Drug sensibility profile (MRSA strain 14): S
Drug sensibility profile (MRSA strain 15): S
Drug sensibility profile (MRSA strain 16): S
Drug sensibility profile (MRSA strain 17): S
Drug sensibility profile (MRSA strain 18): S
Drug sensibility profile (MRSA strain 21): R
Drug sensibility profile (MRSA strain 23): S
Drug sensibility profile (MRSA strain 24): S
Drug sensibility profile (MRSA strain 25): S
Drug sensibility profile (MRSA strain 26): S S S S S S S
Drug sensibility profile (MRSA strain 27): R
Drug sensibility profile (MRSA strain 28): S
Drug sensibility profile (MRSA strain 29): S
Drug sensibility profile (MRSA strain 30): S
Drug sensibility profile (MRSA strain 31): R
Drug sensibility profile (MRSA strain 34): R
Drug sensibility profile (MRSA strain 35): R
Drug sensibility profile (MRSA strain 36): S S S S S S S
Drug sensibility profile (MRSA strain 40): S
Drug sensibility profile (MRSA strain 41): R
Drug sensibility profile (MRSA strain 42): S
Drug sensibility profile (MRSA strain 43): S
Drug sensibility profile (MRSA strain 44): R
Drug sensibility profile (MRSA strain 45): S
Drug sensibility profile (MRSA strain 46): S
Drug sensibility profile (MRSA strain 48): R
Drug sensibility profile (MRSA strain 49): S
Drug sensibility profile (MRSA strain 50): R
Drug sensibility profile (MRSA strain 51): S

CCCCCCCCCCNCCN[C@@]1(C)C[C@H](O[C@H]2[C@H](Oc3c4cc5cc3Oc3ccc(cc3Cl)[C@@H](O)[C@@H](NC(=O)[C@@H](CC(C)C)NC)C(=O)N[C@@H](CC(N)=O)C(=O)N[C@H]5C(=O)N[C@H]3C(=O)N[C@H](C(=O)N[C@H](C(=O)O)c5cc(O)c(CNCP(=O)(O)O)c(O)c5-c5cc3ccc5O)[C@H](O)c3ccc(c(Cl)c3)O4)O[C@H](CO)[C@@H](O)[C@@H]2O)O[C@@H](C)[C@H]1O [Telavancin]
Drug sensibility profile (MRSA strain 25): S
Drug sensibility profile (MRSA strain 26): S
Drug sensibility profile (MRSA strain 27): S
Drug sensibility profile (MRSA strain 28): S
Drug sensibility profile (MRSA strain 29): S
Drug sensibility profile (MRSA strain 36): S
Drug sensibility profile (MRSA strain 41): S
Drug sensibility profile (MRSA strain 42): S
Drug sensibility profile (MRSA strain 44): S
Drug sensibility profile (MRSA strain 45): S
Drug sensibility profile (MRSA strain 51): S

CCC[C@@H]1C[C@@H](C(=O)N[C@@H]([C@H]2O[C@H](SC)[C@H](O)[C@@H](O)[C@H]2O)[C@H](C)Cl)N(C)C1 [CLIND, clindamycin]
Drug sensibility profile (MRSA strain 1): S
Drug sensibility profile (MRSA strain 2): R
Drug sensibility profile (MRSA strain 3): S
Drug sensibility profile (MRSA strain 4): S
Drug sensibility profile (MRSA strain 5): R
Drug sensibility profile (MRSA strain 6): R
Drug sensibility profile (MRSA strain 7): R
Drug sensibility profile (MRSA strain 8): S
Drug sensibility profile (MRSA strain 9): S
Drug sensibility profile (MRSA strain 10): S
Drug sensibility profile (MRSA strain 12): R
Drug sensibility profile (MRSA strain 13): S
Drug sensibility profile (MRSA strain 14): R
Drug sensibility profile (MRSA strain 15): S
Drug sensibility profile (MRSA strain 16): R
Drug sensibility profile (MRSA strain 17): S
Drug sensibility profile (MRSA strain 18): S
Drug sensibility profile (MRSA strain 21): R
Drug sensibility profile (MRSA strain 23): R
Drug sensibility profile (MRSA strain 24): S
Drug sensibility profile (MRSA strain 25): S
Drug sensibility profile (MRSA strain 26): S S S S S S S
Drug sensibility profile (MRSA strain 27): S
Drug sensibility profile (MRSA strain 28): S
Drug sensibility profile (MRSA strain 29): S
Drug sensibility profile (MRSA strain 30): S
Drug sensibility profile (MRSA strain 31): R
Drug sensibility profile (MRSA strain 34): S
Drug sensibility profile (MRSA strain 35): S
Drug sensibility profile (MRSA strain 36): S S S S S S S
Drug sensibility profile (MRSA strain 40): R
Drug sensibility profile (MRSA strain 41): S
Drug sensibility profile (MRSA strain 42): S
Drug sensibility profile (MRSA strain 43): S
Drug sensibility profile (MRSA strain 44): S
Drug sensibility profile (MRSA strain 45): R
Drug sensibility profile (MRSA strain 46): S
Drug sensibility profile (MRSA strain 48): R
Drug sensibility profile (MRSA strain 49): S
Drug sensibility profile (MRSA strain 50): R
Drug sensibility profile (MRSA strain 51): S
